Legend:
Experiment in all cases: KinaseProfiler Assay
[1] = molecular target: Src(1-530)(h) (Homo sapiens, UniProt P12931)
[2] = molecular target: T1, BrSK2(h) (Homo sapiens, UniProt Q8IWQ3)
T1 sequence (Q8IWQ3 1-736): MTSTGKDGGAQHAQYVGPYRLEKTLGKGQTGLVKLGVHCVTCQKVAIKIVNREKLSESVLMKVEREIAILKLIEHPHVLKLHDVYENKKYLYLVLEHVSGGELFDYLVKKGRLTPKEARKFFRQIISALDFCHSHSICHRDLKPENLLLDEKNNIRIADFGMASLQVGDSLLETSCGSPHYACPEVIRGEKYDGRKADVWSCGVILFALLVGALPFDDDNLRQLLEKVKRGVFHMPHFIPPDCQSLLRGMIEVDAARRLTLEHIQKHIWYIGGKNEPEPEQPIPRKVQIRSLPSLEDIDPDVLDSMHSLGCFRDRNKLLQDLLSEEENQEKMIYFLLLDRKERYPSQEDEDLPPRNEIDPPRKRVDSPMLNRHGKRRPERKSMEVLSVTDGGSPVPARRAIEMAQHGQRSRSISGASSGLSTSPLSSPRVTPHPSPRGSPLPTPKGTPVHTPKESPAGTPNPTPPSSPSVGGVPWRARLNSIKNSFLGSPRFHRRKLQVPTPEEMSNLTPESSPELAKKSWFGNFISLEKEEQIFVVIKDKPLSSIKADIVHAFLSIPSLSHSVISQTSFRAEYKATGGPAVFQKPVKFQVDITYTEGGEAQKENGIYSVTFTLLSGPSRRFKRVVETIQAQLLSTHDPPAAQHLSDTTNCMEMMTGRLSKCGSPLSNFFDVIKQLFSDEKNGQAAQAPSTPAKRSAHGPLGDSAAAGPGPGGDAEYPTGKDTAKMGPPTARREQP

[3] = molecular target: BTK(h) (Homo sapiens, UniProt Q06187)
[4] = molecular target: CDK2/cyclinA(h) (Homo sapiens, UniProt P24941)
[5] = molecular target: Flt1(h) (Homo sapiens, UniProt P17948)
[6] = molecular target: PASK(h) (Homo sapiens, UniProt Q96RG2)
[7] = molecular target: T2, PKCε(h) (Homo sapiens, UniProt Q02156)
T2 sequence (Q02156 1-737): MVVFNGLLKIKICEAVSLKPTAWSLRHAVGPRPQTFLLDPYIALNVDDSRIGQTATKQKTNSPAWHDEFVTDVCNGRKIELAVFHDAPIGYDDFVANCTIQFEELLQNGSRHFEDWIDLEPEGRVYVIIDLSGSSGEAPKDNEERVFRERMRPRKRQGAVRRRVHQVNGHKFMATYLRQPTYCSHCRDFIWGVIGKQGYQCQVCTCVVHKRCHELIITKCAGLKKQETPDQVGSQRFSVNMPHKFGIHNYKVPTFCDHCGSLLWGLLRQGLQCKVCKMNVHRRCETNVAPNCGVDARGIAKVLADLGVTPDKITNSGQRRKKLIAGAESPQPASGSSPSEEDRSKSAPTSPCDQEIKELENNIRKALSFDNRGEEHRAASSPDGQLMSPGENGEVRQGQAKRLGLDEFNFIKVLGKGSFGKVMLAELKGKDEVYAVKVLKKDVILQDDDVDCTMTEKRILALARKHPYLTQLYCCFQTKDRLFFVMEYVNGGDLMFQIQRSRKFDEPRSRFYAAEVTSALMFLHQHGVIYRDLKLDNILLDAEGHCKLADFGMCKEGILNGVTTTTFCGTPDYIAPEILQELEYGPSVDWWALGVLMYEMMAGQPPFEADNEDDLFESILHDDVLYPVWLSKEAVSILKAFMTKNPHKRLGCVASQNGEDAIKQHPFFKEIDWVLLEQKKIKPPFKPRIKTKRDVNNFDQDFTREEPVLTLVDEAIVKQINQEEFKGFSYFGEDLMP

[8] = molecular target: Abl(M351T)(h) (Homo sapiens, UniProt P00519, M351T)
[9] = molecular target: JNK3(h) (Homo sapiens, UniProt P53779)
Sequence of JNK3(h) (P53779 whole entry): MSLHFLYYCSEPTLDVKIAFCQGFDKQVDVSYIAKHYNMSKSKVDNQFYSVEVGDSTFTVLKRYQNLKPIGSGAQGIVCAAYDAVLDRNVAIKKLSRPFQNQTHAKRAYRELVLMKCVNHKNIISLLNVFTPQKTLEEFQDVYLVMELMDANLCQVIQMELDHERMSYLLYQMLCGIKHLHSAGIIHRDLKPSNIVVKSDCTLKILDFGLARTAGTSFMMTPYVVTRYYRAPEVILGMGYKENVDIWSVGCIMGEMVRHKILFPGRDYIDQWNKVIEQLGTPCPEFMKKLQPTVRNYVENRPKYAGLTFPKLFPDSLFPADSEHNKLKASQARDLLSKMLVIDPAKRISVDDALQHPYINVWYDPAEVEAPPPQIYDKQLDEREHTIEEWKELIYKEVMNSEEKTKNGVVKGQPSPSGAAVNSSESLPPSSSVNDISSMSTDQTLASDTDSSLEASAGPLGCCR

Sequence of Src(1-530)(h) (P12931 1-530): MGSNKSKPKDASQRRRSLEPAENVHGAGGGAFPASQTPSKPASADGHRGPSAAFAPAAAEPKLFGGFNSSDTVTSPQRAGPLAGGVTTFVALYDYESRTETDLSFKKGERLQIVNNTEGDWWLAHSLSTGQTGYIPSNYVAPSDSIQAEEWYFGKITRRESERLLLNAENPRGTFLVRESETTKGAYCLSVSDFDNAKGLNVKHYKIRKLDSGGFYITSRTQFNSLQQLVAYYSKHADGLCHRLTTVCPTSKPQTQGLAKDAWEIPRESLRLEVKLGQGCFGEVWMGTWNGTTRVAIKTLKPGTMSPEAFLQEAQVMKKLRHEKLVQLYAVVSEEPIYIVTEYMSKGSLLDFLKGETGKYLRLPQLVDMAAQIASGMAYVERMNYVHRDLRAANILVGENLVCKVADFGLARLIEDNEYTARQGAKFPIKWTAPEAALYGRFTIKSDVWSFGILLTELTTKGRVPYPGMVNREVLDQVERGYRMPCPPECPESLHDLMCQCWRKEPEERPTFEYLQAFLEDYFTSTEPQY
Sequence of PASK(h) (Q96RG2 whole entry): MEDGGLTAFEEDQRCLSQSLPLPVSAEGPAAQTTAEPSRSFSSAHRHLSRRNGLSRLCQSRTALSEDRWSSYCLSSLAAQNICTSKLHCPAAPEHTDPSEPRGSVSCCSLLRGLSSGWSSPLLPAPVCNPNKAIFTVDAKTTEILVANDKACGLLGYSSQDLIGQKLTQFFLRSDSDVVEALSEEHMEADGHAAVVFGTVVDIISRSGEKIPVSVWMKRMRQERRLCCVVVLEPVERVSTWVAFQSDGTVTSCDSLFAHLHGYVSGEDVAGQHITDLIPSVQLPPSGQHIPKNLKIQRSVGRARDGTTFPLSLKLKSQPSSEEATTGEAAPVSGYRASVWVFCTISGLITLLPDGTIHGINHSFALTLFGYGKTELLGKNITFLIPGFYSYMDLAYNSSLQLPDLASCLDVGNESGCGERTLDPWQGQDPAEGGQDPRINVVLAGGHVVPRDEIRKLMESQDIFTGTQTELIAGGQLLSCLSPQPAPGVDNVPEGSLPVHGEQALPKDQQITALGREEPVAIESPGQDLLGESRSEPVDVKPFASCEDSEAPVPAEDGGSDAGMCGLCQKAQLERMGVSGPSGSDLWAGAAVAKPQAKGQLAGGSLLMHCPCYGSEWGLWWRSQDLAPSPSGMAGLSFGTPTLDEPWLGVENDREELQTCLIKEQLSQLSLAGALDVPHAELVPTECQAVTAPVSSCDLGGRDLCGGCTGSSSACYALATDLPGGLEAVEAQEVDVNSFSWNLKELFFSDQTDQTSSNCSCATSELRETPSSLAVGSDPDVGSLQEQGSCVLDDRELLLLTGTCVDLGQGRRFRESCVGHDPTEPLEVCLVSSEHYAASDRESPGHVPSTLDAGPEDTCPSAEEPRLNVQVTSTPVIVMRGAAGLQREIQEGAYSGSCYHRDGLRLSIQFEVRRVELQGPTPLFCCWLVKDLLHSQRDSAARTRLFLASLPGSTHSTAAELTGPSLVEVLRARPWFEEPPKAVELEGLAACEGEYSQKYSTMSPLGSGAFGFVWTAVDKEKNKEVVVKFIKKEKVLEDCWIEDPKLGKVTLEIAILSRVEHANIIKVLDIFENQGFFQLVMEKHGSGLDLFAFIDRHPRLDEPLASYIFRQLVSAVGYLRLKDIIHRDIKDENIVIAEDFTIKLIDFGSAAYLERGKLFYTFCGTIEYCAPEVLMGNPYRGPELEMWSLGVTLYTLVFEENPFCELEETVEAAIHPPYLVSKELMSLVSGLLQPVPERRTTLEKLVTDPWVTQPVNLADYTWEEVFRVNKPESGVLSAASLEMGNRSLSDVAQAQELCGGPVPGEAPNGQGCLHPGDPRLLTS
Sequence of BTK(h) (Q06187 whole entry): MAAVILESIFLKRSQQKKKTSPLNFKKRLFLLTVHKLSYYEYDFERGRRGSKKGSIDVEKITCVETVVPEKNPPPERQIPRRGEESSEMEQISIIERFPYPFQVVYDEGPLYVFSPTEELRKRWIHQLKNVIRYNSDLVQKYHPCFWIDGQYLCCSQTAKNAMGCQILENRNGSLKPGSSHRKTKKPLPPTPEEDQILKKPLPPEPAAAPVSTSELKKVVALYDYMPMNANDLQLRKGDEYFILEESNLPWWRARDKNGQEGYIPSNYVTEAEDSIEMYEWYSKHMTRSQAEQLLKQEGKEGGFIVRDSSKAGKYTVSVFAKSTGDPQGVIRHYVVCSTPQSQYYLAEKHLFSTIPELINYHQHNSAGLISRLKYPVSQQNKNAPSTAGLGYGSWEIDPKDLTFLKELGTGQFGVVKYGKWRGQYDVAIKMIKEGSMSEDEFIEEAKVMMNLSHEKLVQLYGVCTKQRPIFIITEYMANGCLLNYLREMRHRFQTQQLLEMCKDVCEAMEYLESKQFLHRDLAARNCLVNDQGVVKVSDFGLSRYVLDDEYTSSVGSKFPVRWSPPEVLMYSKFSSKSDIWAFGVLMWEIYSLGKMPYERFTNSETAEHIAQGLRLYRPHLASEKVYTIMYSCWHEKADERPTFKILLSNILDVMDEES
Sequence of Flt1(h) (P17948 27-1338): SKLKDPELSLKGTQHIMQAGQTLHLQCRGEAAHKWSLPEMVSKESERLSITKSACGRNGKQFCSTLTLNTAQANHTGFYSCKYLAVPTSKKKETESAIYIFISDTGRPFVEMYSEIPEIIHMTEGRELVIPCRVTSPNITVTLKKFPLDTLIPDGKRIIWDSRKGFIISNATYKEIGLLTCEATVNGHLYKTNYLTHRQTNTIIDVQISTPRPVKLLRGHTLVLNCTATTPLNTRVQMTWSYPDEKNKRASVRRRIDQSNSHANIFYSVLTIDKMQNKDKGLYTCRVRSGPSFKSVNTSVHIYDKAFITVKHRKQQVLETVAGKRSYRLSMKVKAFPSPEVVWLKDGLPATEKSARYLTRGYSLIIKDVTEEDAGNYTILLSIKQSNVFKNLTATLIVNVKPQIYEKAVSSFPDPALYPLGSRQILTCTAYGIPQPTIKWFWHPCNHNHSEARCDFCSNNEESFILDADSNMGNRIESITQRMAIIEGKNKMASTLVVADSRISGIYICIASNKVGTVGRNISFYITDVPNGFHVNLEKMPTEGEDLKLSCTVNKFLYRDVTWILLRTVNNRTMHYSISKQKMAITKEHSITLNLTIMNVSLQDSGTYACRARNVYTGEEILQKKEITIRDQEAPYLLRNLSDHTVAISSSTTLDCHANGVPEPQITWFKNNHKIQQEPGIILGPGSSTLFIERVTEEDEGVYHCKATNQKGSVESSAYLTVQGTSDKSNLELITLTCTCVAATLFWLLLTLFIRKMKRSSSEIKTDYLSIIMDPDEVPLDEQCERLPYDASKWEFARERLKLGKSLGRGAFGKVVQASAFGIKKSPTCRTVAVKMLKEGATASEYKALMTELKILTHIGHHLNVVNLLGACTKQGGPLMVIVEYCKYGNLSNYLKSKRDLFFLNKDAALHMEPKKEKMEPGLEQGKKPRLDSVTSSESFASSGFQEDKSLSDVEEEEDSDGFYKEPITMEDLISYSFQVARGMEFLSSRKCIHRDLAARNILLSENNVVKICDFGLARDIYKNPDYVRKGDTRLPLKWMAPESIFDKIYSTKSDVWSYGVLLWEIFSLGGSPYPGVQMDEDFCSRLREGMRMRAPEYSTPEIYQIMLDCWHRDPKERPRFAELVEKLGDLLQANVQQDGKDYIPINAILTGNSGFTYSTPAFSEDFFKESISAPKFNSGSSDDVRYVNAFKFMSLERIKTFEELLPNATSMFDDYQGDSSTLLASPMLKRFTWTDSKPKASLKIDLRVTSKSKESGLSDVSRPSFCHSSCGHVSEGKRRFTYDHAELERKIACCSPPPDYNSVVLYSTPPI

CC(C)CCC(=O)[C@]1(O)C(O)=C(C(=O)C(C)C)C(=O)[C@H]1CCC(C)C [TH2, tetrahydroiso-cohumulone]
kinase inhibition ([1]; 1 μg/ml): 103% of control | kinase inhibition ([1]; 5 μg/ml): 105% of control | kinase inhibition ([1]; 25 μg/ml): 105% of control | kinase inhibition ([1]; 50 μg/ml): 102% of control | kinase inhibition ([1]; 100 μg/ml): 75% of control | kinase inhibition ([2]; 1 μg/ml): 99% of control | kinase inhibition ([2]; 5 μg/ml): 90% of control | kinase inhibition ([2]; 25 μg/ml): 84% of control | kinase inhibition ([2]; 50 μg/ml): 83% of control | kinase inhibition ([2]; 100 μg/ml): 72% of control | kinase inhibition ([3]; 1 μg/ml): 98% of control | kinase inhibition ([3]; 5 μg/ml): 96% of control | kinase inhibition ([3]; 25 μg/ml): 67% of control | kinase inhibition ([3]; 50 μg/ml): 59% of control | kinase inhibition ([3]; 100 μg/ml): 47% of control | kinase inhibition ([4]; 1 μg/ml): 114% of control | kinase inhibition ([4]; 5 μg/ml): 124% of control | kinase inhibition ([4]; 25 μg/ml): 95% of control | kinase inhibition ([4]; 50 μg/ml): 98% of control | kinase inhibition ([4]; 100 μg/ml): 87% of control | kinase inhibition ([5]; 1 μg/ml): 102% of control | kinase inhibition ([5]; 5 μg/ml): 97% of control | kinase inhibition ([5]; 25 μg/ml): 103% of control | kinase inhibition ([5]; 50 μg/ml): 102% of control | kinase inhibition ([5]; 100 μg/ml): 98% of control | kinase inhibition ([6]; 1 μg/ml): 71% of control | kinase inhibition ([6]; 5 μg/ml): 76% of control | kinase inhibition ([6]; 25 μg/ml): 78% of control | kinase inhibition ([6]; 50 μg/ml): 80% of control | kinase inhibition ([6]; 100 μg/ml): 71% of control | kinase inhibition ([7]; 1 μg/ml): 105% of control | kinase inhibition ([7]; 5 μg/ml): 102% of control | kinase inhibition ([7]; 25 μg/ml): 98% of control | kinase inhibition ([7]; 50 μg/ml): 102% of control | kinase inhibition ([7]; 100 μg/ml): 90% of control | kinase inhibition ([8]; 1 μg/ml): 92% of control | kinase inhibition ([8]; 5 μg/ml): 95% of control | kinase inhibition ([8]; 25 μg/ml): 89% of control | kinase inhibition ([8]; 50 μg/ml): 75% of control | kinase inhibition ([8]; 100 μg/ml): 56% of control | kinase inhibition ([9]; 1 μg/ml): 110% of control | kinase inhibition ([9]; 5 μg/ml): 108% of control | kinase inhibition ([9]; 25 μg/ml): 80% of control | kinase inhibition ([9]; 50 μg/ml): 92% of control | kinase inhibition ([9]; 100 μg/ml): 88% of control

Reference: patent publication US20100137449A1, “SUBSTITUTED 1,3-CYCLOPENTADIONE MULTI-TARGET PROTEIN KINASE MODULATORS OF CANCER, ANGIOGENESIS AND THE INFLAMMATORY PATHWAYS ASSOCIATED THEREWITH” (METAPROTEOMICS, LLC, priority 2007, published 2010)
